Measured values: the supplement of paper PMC10627819

Key:
B. subtilis 168 [1] = assay: fitness (endpoint OD595 vs no drug) (fraction); higher = more growth
Procedure, shortened: (§1)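 With the first reading as background, OD595 was measured every 30 min for 14 h in 384-well plates kept at 37 °C and inoculated at OD595 0.01. TSB, LB Lennox or CY was the medium. Fitness is the optical density at the transition into stationary phase divided by the robust mean of no-drug control wells, with a cap of 1.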

S. pneumoniae D39V [2] = assay: as above
Procedure, shortened: as §1

B. subtilis 168 [3] = assay: Bliss interaction score (quartile over a dose matrix) (fitness difference); higher = more antagonism (negative = synergy)
Procedure, shortened: (§2)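 Quartiles of the Bliss score were taken over technical, biological and donor/recipient replicates. That score is observed fitness minus the product of the single-drug fitness values, which were inferred from combination data. Fitness itself is OD595 at entry into stationary phase divided by the plate's robust no-drug mean, with a cap at 1.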

S. aureus DSM 20231 = assay: as above
Procedure, shortened: as §2

S. aureus Newman = assay: as above
Procedure, shortened: as §2

S. pneumoniae D39V [4] = assay: as above
Procedure, shortened: as §2
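Throughout, for Bliss interaction score (quartile over a dose matrix): first quartile when negative (synergy) and third quartile when positive (antagonism).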

C[C@H]1COc2c(N3CCN(C)CC3)c(F)cc3c(=O)c(C(=O)O)cn1c23 [Levofloxacin] + Cc1ncc([N+](=O)[O-])n1CCO [Metronidazole]
fitness, B. subtilis 168 [1], one replicate
Conditions | first compound 0.001 µg/mL | first compound 0.002 µg/mL | first compound 0.0039 µg/mL
partner 0.625 µg/mL | 0.946 | 0.911 | 0.852
partner 1.25 µg/mL | 0.96 | 0.85 | 0.845
partner 2.5 µg/mL | 0.965 | 0.929 | 0.855

Conditions | fitness
B. subtilis 168 [1], first compound 0.0312 µg/mL, partner 0.625 µg/mL | 0.0462
B. subtilis 168 [1], first compound 0.0312 µg/mL, partner 1.25 µg/mL | 0.0567
B. subtilis 168 [1], first compound 0.0312 µg/mL, partner 2.5 µg/mL | 0.0324
B. subtilis 168 [1], first compound 0.0625 µg/mL, partner 0.625 µg/mL | 0.0491
B. subtilis 168 [1], first compound 0.0625 µg/mL, partner 1.25 µg/mL | 0.0521
B. subtilis 168 [1], first compound 0.0625 µg/mL, partner 2.5 µg/mL | 0.0541
B. subtilis 168 [1], first compound 0.125 µg/mL, partner 0.625 µg/mL | 0.0404
B. subtilis 168 [1], first compound 0.125 µg/mL, partner 1.25 µg/mL | 0.0466
B. subtilis 168 [1], first compound 0.125 µg/mL, partner 2.5 µg/mL | 0.0398
S. pneumoniae D39V [2], first compound 0.1725 µg/mL, partner 1.25 µg/mL | 0.985
S. pneumoniae D39V [2], first compound 0.1725 µg/mL, partner 2.5 µg/mL | 0.993
S. pneumoniae D39V [2], first compound 0.1725 µg/mL, partner 5 µg/mL | 0.976
S. pneumoniae D39V [2], first compound 0.2 µg/mL, partner 1.073 µg/mL | 0.95
S. pneumoniae D39V [2], first compound 0.2 µg/mL, partner 2.145 µg/mL | 0.91
S. pneumoniae D39V [2], first compound 0.2 µg/mL, partner 4.29 µg/mL | 0.899
S. pneumoniae D39V [2], first compound 0.345 µg/mL, partner 1.25 µg/mL | 0.903
S. pneumoniae D39V [2], first compound 0.345 µg/mL, partner 2.5 µg/mL | 0.92
S. pneumoniae D39V [2], first compound 0.345 µg/mL, partner 5 µg/mL | 0.931
S. pneumoniae D39V [2], first compound 0.4 µg/mL, partner 1.073 µg/mL | 0.873
S. pneumoniae D39V [2], first compound 0.4 µg/mL, partner 2.145 µg/mL | 0.85
S. pneumoniae D39V [2], first compound 0.4 µg/mL, partner 4.29 µg/mL | 0.819
S. pneumoniae D39V [2], first compound 0.69 µg/mL, partner 1.25 µg/mL | 0.7
S. pneumoniae D39V [2], first compound 0.69 µg/mL, partner 2.5 µg/mL | 0.704
S. pneumoniae D39V [2], first compound 0.69 µg/mL, partner 5 µg/mL | 0.686
S. pneumoniae D39V [2], first compound 0.8 µg/mL, partner 1.073 µg/mL | 0.765
S. pneumoniae D39V [2], first compound 0.8 µg/mL, partner 2.145 µg/mL | 0.765
S. pneumoniae D39V [2], first compound 0.8 µg/mL, partner 4.29 µg/mL | 0.71

Conditions | Bliss interaction score
B. subtilis 168 [3] | 0.0195
S. aureus DSM 20231 | -0.0575
S. aureus Newman | -0.0661
S. pneumoniae D39V [4] | 0.121

CN(C)C(=O)C(CCN1CCC(O)(c2ccc(Cl)cc2)CC1)(c1ccccc1)c1ccccc1 [Loperamide] + CCN(CC)CCOC(=O)c1ccc(N)cc1 [Procaine]
fitness
Conditions | partner 85.5 µg/mL | partner 171 µg/mL | partner 342 µg/mL
B. subtilis 168 [1], first compound 25 µg/mL | 0.801 | 0.84 | 0.763
B. subtilis 168 [1], first compound 50 µg/mL | 0.0504 | 0.0536 | 0.051
B. subtilis 168 [1], first compound 100 µg/mL | 0.0164 | 0.016 | 0.052
S. pneumoniae D39V [2], first compound 17.14 µg/mL | 0.941 | 0.905 | 0.903
S. pneumoniae D39V [2], first compound 34.28 µg/mL | 0.97 | 0.853 | 0.923

fitness, S. pneumoniae D39V [2], one replicate
Conditions | first compound 20 µg/mL | first compound 40 µg/mL | first compound 68.57 µg/mL | first compound 80 µg/mL
partner 85.5 µg/mL | ≥ 1 | ≥ 1 | 0.919 | 0.999
partner 171 µg/mL | ≥ 1 | ≥ 1 | 0.874 | ≥ 1
partner 342 µg/mL | ≥ 1 | 0.986 | 0.88 | ≥ 1

Conditions | Bliss interaction score
B. subtilis 168 [3] | -0.0865
S. aureus DSM 20231 | 0.127
S. aureus Newman | 0.0372
S. pneumoniae D39V [4] | -0.0548

CN(C)C(=O)C(CCN1CCC(O)(c2ccc(Cl)cc2)CC1)(c1ccccc1)c1ccccc1 [Loperamide] + COc1c(N2C[C@@H]3CCCN[C@@H]3C2)c(F)cc2c(=O)c(C(=O)O)cn(C3CC3)c12 [Moxifloxacin]
Conditions | fitness
B. subtilis 168 [1], first compound 25 µg/mL, partner 0.0312 µg/mL | 0.0408
B. subtilis 168 [1], first compound 25 µg/mL, partner 0.0625 µg/mL | 0.0524
B. subtilis 168 [1], first compound 25 µg/mL, partner 0.125 µg/mL | 0.0382
B. subtilis 168 [1], first compound 25 µg/mL, partner 2 µg/mL | 0.0259
B. subtilis 168 [1], first compound 25 µg/mL, partner 4 µg/mL | 0.0205
B. subtilis 168 [1], first compound 25 µg/mL, partner 8 µg/mL | 0.017
B. subtilis 168 [1], first compound 50 µg/mL, partner 0.0312 µg/mL | 0.0458
B. subtilis 168 [1], first compound 50 µg/mL, partner 0.0625 µg/mL | 0.0525
B. subtilis 168 [1], first compound 50 µg/mL, partner 0.125 µg/mL | 0.068
B. subtilis 168 [1], first compound 50 µg/mL, partner 2 µg/mL | 0.0274
B. subtilis 168 [1], first compound 50 µg/mL, partner 4 µg/mL | 0.0294
B. subtilis 168 [1], first compound 50 µg/mL, partner 8 µg/mL | 0.0145
B. subtilis 168 [1], first compound 100 µg/mL, partner 0.0312 µg/mL | 0.0464
B. subtilis 168 [1], first compound 100 µg/mL, partner 0.0625 µg/mL | 0.0527
B. subtilis 168 [1], first compound 100 µg/mL, partner 0.125 µg/mL | 0.0413
B. subtilis 168 [1], first compound 100 µg/mL, partner 2 µg/mL | 0.0272
B. subtilis 168 [1], first compound 100 µg/mL, partner 4 µg/mL | 0.0176
B. subtilis 168 [1], first compound 100 µg/mL, partner 8 µg/mL | 0.0179
S. pneumoniae D39V [2], first compound 17.14 µg/mL, partner 0.0037 µg/mL | 0.897
S. pneumoniae D39V [2], first compound 17.14 µg/mL, partner 0.0075 µg/mL | 0.952
S. pneumoniae D39V [2], first compound 17.14 µg/mL, partner 0.015 µg/mL | 0.85
S. pneumoniae D39V [2], first compound 20 µg/mL, partner 0.005 µg/mL | ≥ 1
S. pneumoniae D39V [2], first compound 20 µg/mL, partner 0.01 µg/mL | ≥ 1
S. pneumoniae D39V [2], first compound 20 µg/mL, partner 0.02 µg/mL | ≥ 1
S. pneumoniae D39V [2], first compound 34.28 µg/mL, partner 0.0037 µg/mL | 0.822
S. pneumoniae D39V [2], first compound 34.28 µg/mL, partner 0.0075 µg/mL | 0.905
S. pneumoniae D39V [2], first compound 34.28 µg/mL, partner 0.015 µg/mL | 0.836
S. pneumoniae D39V [2], first compound 40 µg/mL, partner 0.005 µg/mL | ≥ 1
S. pneumoniae D39V [2], first compound 40 µg/mL, partner 0.01 µg/mL | ≥ 1
S. pneumoniae D39V [2], first compound 40 µg/mL, partner 0.02 µg/mL | ≥ 1

S. pneumoniae D39V [2], first compound 68.57 µg/mL, one replicate
Conditions | fitness
partner 0.0037 µg/mL | 0.729
partner 0.0075 µg/mL | 0.796
partner 0.015 µg/mL | 0.779

Conditions | Bliss interaction score
B. subtilis 168 [3] | 0.035
S. aureus DSM 20231 | 0.13
S. aureus Newman | 0.0359
S. pneumoniae D39V [4] | 0.0769

C[C@H]1COc2c(N3CCN(C)CC3)c(F)cc3c(=O)c(C(=O)O)cn1c23 [Levofloxacin] + Cc1cc(NS(=O)(=O)c2ccc(N)cc2)no1 [Sulfamethoxazol]
fitness, one replicate
Conditions | partner 0.5 µg/mL | partner 1 µg/mL | partner 2 µg/mL | partner 4 µg/mL
B. subtilis 168 [1], first compound 0.001 µg/mL | – | 0.98 | 0.98 | 0.929
B. subtilis 168 [1], first compound 0.002 µg/mL | 0.955 | – | – | 0.885
B. subtilis 168 [1], first compound 0.0039 µg/mL | 0.939 | – | – | 0.834
B. subtilis 168 [1], first compound 0.0078 µg/mL | 0.862 | 0.782 | 0.788 | –
S. pneumoniae D39V [2], first compound 0.2 µg/mL | – | 0.955 | 0.902 | 0.841
S. pneumoniae D39V [2], first compound 0.4 µg/mL | – | 0.854 | 0.87 | 0.771
S. pneumoniae D39V [2], first compound 0.8 µg/mL | – | 0.373 | 0.495 | 0.487

fitness
Conditions | partner 1 µg/mL | partner 2 µg/mL | partner 4 µg/mL
B. subtilis 168 [1], first compound 0.002 µg/mL | 0.867 | 0.881 | –
B. subtilis 168 [1], first compound 0.0039 µg/mL | 0.831 | 0.841 | –
B. subtilis 168 [1], first compound 0.0312 µg/mL | 0.0318 | 0.0375 | 0.0268
B. subtilis 168 [1], first compound 0.0625 µg/mL | 0.0358 | 0.0467 | 0.0289
B. subtilis 168 [1], first compound 0.125 µg/mL | 0.0382 | 0.0353 | 0.0242
S. pneumoniae D39V [2], first compound 0.1725 µg/mL | 0.935 | 0.972 | 0.967
S. pneumoniae D39V [2], first compound 0.345 µg/mL | 0.824 | 0.827 | 0.833
S. pneumoniae D39V [2], first compound 0.69 µg/mL | 0.455 | 0.461 | 0.498

Conditions | Bliss interaction score
B. subtilis 168 [3] | -0.0263
S. aureus DSM 20231 | -0.125
S. aureus Newman | 0.0779
S. pneumoniae D39V [4] | -0.0634
